# Results published in patent publication US9474780B2, “GIP and GLP-1 co-agonist compounds” (Eli Lilly and Company, priority 2015, dated 2016).
# Numbered stars: 1 amine (or outer) side, 2 acyl side, 3 side chain; on linkers, the order of the positions; unused ones are H or OH. Square brackets hold non-standard residues; d marks the D form. Side chains are listed from the residue outwards. Peptide text beside a SMILES is read from it. * marks the point of attachment. C18 diacid = O=C(O)CCCCCCCCCCCCCCCCC(=O)*; γGlu = O=C(O)[C@H](CCC(=O)[*:2])N[*:1]; 1Nal = N[C@@H](Cc1cccc2ccccc12)C(=O)O; AEEA = NCCOCCOCC(=O)O; Aib = CC(C)(N)C(=O)O
# Experiments:
# mouse islets = assay: Mouse islet insulin secretion; assay type: cell-based; conditions: read-out: Mouse islet insulin secretion Mean ED50
# Procedure: To assess action of compounds of the present invention in a system representing physiological GLP-1R and GIP-R expression levels insulin secretion, compounds are tested for effects on insulin secretion from wild-type rodent islets.
# After common bile duct cannulation in male C57B1/6 mice (22-26 g) or male Sprague-Dawley rats (approx. 250 g), the pancreas is distended with Hank's buffer (3 ml for mice or 10 ml for rats, containing 2% BSA and 0.75 mg/ml Clzyme collagenase (VitaCyte). Subsequently, tissues are digested in Hank's buffer at 37° C. for 11-13 minutes (mice) or 14-16 minutes for rat pancreata. Purified islets (Histopaque-1100 gradient [Sigma-Aldrich], […] at 750× gravity) are cultured overnight in RPMI-1640 medium (Invitrogen) containing 10% FBS, 100 U/ml penicillin and 100 μg/ml streptomycin, and preconditioned by starvation in Earle's Balanced Salt Solution (EBSS) supplemented with 0.1% BSA and 2.8 mM glucose. Subsequently, islets are incubated in EBSS (Invitrogen) supplemented with 0.1% BSA, 2.8-11.2 mM glucose and increasing levels of compound (6 batches of 4 islets/condition). GLP-1(7-36)amide (30 nM) is used as a positive control. Insulin is measured over 90 minutes in supernatant using the MSD Insulin Assay (Meso Scale, Gaithersburg, Md.).
# Human GCGR = Human GCGR (Homo sapiens, UniProt P47871); assay: Functional hGCGR cAMP assay in HEK-293 clonal cells
# human GLP-1R [1] = target: T1, human GLP-1R (Homo sapiens, UniProt P43220); assay: Functional hGLP-1R cAMP assay in HEK-293 clonal cells; assay type: cell-based; conditions: HEK293; percent of maximal response of hGLP-1(7-36)NH2
# T1 construct: expressed in transfected cells; host or cells: 293HEK, Hygromycin-selected; crude plasma membranes
# [2] = Pharmacokinetics in cynomolgus monkeys; assay type: in vivo; conditions: cynomolgus monkey, plasma, single SC 0.2 mg/kg, male monkeys, n = 2
# Procedure: The compounds are administered by a single intravenous or subcutaneous dose (0.2 mg/kg) in 20 mM citrate buffer (pH 7.0) at a volume of 0.21 ml/kg. Blood is collected from each animal at 2, 4, 8, 12, 24, 48, 72, 96, 120, 144, 168, 204, 240, and 312 hours post-dosage. The plasma concentrations of compounds of the present invention are determined by a LC/MS method. Briefly, a compound of the present invention is extracted from 100% Monkey plasma sample (50 μl) diluted with 1×PBS (150 μl) and mixed with N-butanol (400 μl). Three distinct liquid layers are formed with the compound located in the top layer. A volume of 200 μl is transferred to a v-bottom 96-well plate, dried down using heated Nitrogen gas and reconstituted with 100 μl of 30% acetonitrile/0.1% formic acid. 20 μl of the reconstituted sample is injected onto a Supelco Analytical Discovery bio wide C5 3 μm column. The column effluent is directed into a Thermo Q-Exactive mass spectrometer for detection and quantitation.
# human GLP-1R [3] = target: T1, human GLP-1R; assay type: binding
# human GIP-R = target: T2, human GIP-R (Homo sapiens, UniProt P48546); assay: Functional hGIP-R cAMP assay in HEK-293 clonal cells; conditions: HEK293, read-out: Human GIP-R Emax
# T2 sequence (P48546 22-466): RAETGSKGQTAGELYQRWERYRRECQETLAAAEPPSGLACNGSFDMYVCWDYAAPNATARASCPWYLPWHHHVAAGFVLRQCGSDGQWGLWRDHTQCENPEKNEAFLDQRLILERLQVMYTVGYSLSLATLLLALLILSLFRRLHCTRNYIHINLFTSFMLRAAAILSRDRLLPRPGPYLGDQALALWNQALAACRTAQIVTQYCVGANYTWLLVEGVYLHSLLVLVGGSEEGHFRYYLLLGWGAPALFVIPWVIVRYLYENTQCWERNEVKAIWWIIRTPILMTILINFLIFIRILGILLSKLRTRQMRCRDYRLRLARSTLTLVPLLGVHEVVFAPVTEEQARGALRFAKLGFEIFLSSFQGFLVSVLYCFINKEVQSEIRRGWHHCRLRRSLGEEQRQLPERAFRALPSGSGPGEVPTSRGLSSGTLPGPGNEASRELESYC
# Procedure: After an incubation of 60 minutes at room temperature, the resulting increase in intracellular cAMP is quantitatively determined using the CisBio cAMP Dynamic 2 HTRF Assay Kit (Bedford, Mass.). Briefly, cAMP levels within the cell are detected by adding the cAMP-d2 conjugate in cell lysis buffer (20 μl) followed by the antibody anti-cAMP-Eu^3+-Cryptate, also in cell lysis buffer (20 μl). The resulting competitive assay is incubated for at least 60 minutes at room temperature, then detected using a PerkinElmer Envision® instrument with excitation at 320 nm and emission at 665 nm and 620 nm Envision units (emission at 665 nm/620 nm*10,000) are inversely proportional to the amount of cAMP present and are converted to nM cAMP per well using a cAMP standard curve. […] A relative EC50 value and percent top (Emax) is derived by non-linear regression analysis using the percent maximal response versus the concentration of the compound of the present invention, fitted to a four-parameter logistic equation.
# [4] = Weight loss, body composition and hepatic steatosis in DIO mice; assay type: in vivo, mouse; conditions: for Blood Glucose: Day 15
# Procedure: The effects on weight loss, body composition and hepatic steatosis in DIO mice for compounds of the present invention are evaluated in C57/BL6 DIO mice. […] Animals are individually housed in a temperature-controlled (24° C.) facility with a 12 hour light/dark cycle (lights on 22:00), and free access to food and water. […] Daily body weight and food intake are measured throughout the study. Absolute changes in body weight are calculated by subtracting the body weight of the same animal prior to the first injection of compound. […] On Day 15, blood glucose is measured with Accu-Chek glucometer (Roche) from tail vein blood and then animals may be sacrificed and livers removed and frozen. Liver triglycerides, determined from homogenates of livers collected at sacrifice, and plasma cholesterol are measured on a Hitachi Modular P clinical analyzer. Statistical comparisons between groups are done using one-way ANOVA followed by Dunnett's multiple comparison test. The ED50 for weight loss lowering is determined in GraphPad Prism using the non-linear fit tool.
# [5] = Rat in vivo insulin secretion following intravenous glucose (IVGTT); conditions: s.c. 16 hour prior to glucose
# Procedure: Male Wistar rats (Harlan Labs, Indianapolis, Ind.) are randomized by body weight and dosed 1.5 ml/kg s.c. 16 hour prior to glucose administration and then fasted. Doses are vehicle, 0.1, 0.3, 1, 3 and 10 nmol/kg. Animals are weighed, and then anesthetized with sodium pentobarbital (Nembutal Sodium solution; Ovation Pharmaceuticals) dosed i.p. (65 mg/kg, 30 mg/ml). A time zero blood sample is collected into EDTA tubes after which glucose is administered ([…], 5 ml/kg). Blood samples are collected at 2, 4, 6, 10, 20, and 30 minutes post glucose. Plasma glucose levels are determined using a Hitachi analyzer (Roche) and plasma insulin is measured by the MSD insulin assay (Meso Scale, Gaithersburg, Md.).
# T1 sequence (P43220 24-463): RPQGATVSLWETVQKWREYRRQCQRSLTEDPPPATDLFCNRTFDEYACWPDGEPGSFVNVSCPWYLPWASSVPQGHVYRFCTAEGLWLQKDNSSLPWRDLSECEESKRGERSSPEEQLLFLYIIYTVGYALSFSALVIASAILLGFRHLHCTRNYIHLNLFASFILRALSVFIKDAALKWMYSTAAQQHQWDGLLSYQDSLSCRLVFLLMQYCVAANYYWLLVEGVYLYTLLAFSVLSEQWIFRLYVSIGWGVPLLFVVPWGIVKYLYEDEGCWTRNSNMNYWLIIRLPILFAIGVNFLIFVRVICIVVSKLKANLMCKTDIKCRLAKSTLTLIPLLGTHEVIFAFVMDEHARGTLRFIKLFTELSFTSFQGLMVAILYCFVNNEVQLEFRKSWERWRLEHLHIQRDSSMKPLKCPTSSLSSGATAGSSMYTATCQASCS
# Chain of Human GCGR (P47871 26-477): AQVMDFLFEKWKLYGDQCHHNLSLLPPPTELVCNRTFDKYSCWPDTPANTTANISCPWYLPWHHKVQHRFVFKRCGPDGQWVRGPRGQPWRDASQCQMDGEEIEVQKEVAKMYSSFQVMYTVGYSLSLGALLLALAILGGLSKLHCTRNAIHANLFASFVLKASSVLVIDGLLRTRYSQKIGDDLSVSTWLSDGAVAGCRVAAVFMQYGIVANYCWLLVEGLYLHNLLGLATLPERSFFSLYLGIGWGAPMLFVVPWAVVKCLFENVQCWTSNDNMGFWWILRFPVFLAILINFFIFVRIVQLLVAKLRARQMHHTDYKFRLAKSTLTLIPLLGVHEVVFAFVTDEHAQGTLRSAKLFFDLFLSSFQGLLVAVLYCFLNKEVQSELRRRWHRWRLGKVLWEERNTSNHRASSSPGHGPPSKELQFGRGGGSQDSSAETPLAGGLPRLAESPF
smiles,measurement,setting,value
CC[C@H](C)[C@H](NC(=O)[C@H](CC(C)C)NC(=O)[C@H](Cc1c[nH]c2ccccc12)NC(=O)[C@H](CCC(N)=O)NC(=O)[C@@H](NC(=O)[C@H](Cc1ccccc1)NC(=O)[C@H](C)NC(=O)[C@H](CCCCNC(=O)COCCOCCNC(=O)COCCOCCNC(=O)CC[C@H](NC(=O)CC[C@H](NC(=O)CCCCCCCCCCCCCCCCC(=O)O)C(=O)O)C(=O)O)NC(=O)[C@H](CCC(N)=O)NC(=O)[C@H](C)NC(=O)[C@@H](NC(=O)[C@H](CCCCN)NC(=O)[C@H](CC(=O)O)NC(=O)[C@H](CC(C)C)NC(=O)C(C)(C)NC(=O)[C@@H](NC(=O)[C@H](CO)NC(=O)[C@H](Cc1ccc(O)cc1)NC(=O)[C@H](CC(=O)O)NC(=O)[C@H](CO)NC(=O)[C@@H](NC(=O)[C@H](Cc1ccccc1)NC(=O)[C@@H](NC(=O)CNC(=O)[C@H](CCC(=O)O)NC(=O)C(C)(C)NC(=O)[C@@H](N)Cc1ccc(O)cc1)[C@@H](C)O)[C@@H](C)O)[C@@H](C)CC)[C@@H](C)CC)C(C)C)C(=O)N[C@@H](C)C(=O)NCC(=O)NCC(=O)N1CCC[C@H]1C(=O)N[C@@H](CO)C(=O)N[C@@H](CO)C(=O)NCC(=O)N[C@@H](C)C(=O)N1CCC[C@H]1C(=O)N1CCC[C@H]1C(=O)N1CCC[C@H]1C(=O)N[C@@H](CO)C(N)=O [Example 4],EC50,mouse islets,3.5 nM
same,EC50,Human GCGR,> 1000 nM
same,Emax,human GLP-1R [1],100 ± 5%
CC[C@H](C)[C@H](NC(=O)[C@H](CC(C)C)NC(=O)[C@H](Cc1c[nH]c2ccccc12)NC(=O)[C@H](CCC(N)=O)NC(=O)[C@@H](NC(=O)[C@H](Cc1cccc2ccccc12)NC(=O)[C@H](C)NC(=O)[C@H](CCCCNC(=O)COCCOCCNC(=O)COCCOCCNC(=O)CC[C@H](NC(=O)CCCCCCCCCCCCCCCCC(=O)O)C(=O)O)NC(=O)[C@H](CCC(N)=O)NC(=O)[C@H](C)NC(=O)[C@@H](NC(=O)[C@H](CCCCN)NC(=O)[C@H](CC(=O)O)NC(=O)[C@H](CC(C)C)NC(=O)C(C)(C)NC(=O)[C@@H](NC(=O)[C@H](CO)NC(=O)[C@H](Cc1ccc(O)cc1)NC(=O)[C@H](CC(=O)O)NC(=O)[C@H](CO)NC(=O)[C@@H](NC(=O)[C@H](Cc1ccccc1)NC(=O)[C@@H](NC(=O)CNC(=O)[C@H](CCC(=O)O)NC(=O)C(C)(C)NC(=O)[C@@H](N)Cc1ccc(O)cc1)[C@@H](C)O)[C@@H](C)O)[C@@H](C)CC)[C@@H](C)CC)C(C)C)C(=O)N[C@@H](C)C(=O)NCC(=O)NCC(=O)N1CCC[C@H]1C(=O)N[C@@H](CO)C(=O)N[C@@H](CO)C(=O)NCC(=O)N[C@@H](C)C(=O)N1CCC[C@H]1C(=O)N1CCC[C@H]1C(=O)N1CCC[C@H]1C(=O)N[C@@H](CO)C(N)=O [Example 6] (H-Y[Aib]EGTFTSDYSI[Aib]LDKIAQK([AEEA-AEEA-γGlu-C18 diacid])A[1Nal]VQWLIAGGPSSGAPPPS-NH2),EC50,mouse islets,51.4 nM
same,EC50,Human GCGR,> 1000 nM
same,CL/F,[2],2.8 mL/h/kg
same,Cmax,[2],2200 ng/mL
same,AUC(0-inf),[2]; read-out: Mean AUC0-inf,72300 ng·h/mL
same,half-life,[2]; read-out: Mean T1/2 (converted),23 h
same,Tmax,[2]; read-out: Mean Tmax,4 h
same,Molar ratio of hGLP-1R/hGIP-R,human GLP-1R [3]; normalized by factor 4.53 from native GIP and GLP-1 binding,1.83
same,Absolute ratio of hGLP-1R/hGIP-R,human GLP-1R [3]; ratio of Ki values,8.3
same,Emax,human GIP-R,106 ± 3%
same,Emax,human GLP-1R [1],104 ± 4%
same,% Change from starting body weight,"[4]; Table 8, 10 nmol/kg",−15.31 ± 1.25 %
same,% Change from starting fat mass,"[4]; Table 8, 10 nmol/kg",−24.75 ± 1.89 %
same,% Change from starting body weight,"[4]; Table 8, 30 nmol/kg",−21.62 ± 0.92 %
same,% Change from starting fat mass,"[4]; Table 8, 30 nmol/kg",−36.30 ± 2.47 %
same,% Change from starting body weight,"[4]; Table 8, 100 nmol/kg",−33.95 ± 1.93 %
same,% Change from starting fat mass,"[4]; Table 8, 100 nmol/kg",−64.64 ± 4.04 %
same,% Change from starting body weight,"[4]; Table 10, 10 nmol/kg",−17.54 ± 1.17 %
same,% Change from starting fat mass,"[4]; Table 10, 10 nmol/kg",−34.30 ± 1.20 %
same,% Change from starting body weight,"[4]; Table 10, 30 nmol/kg",−19.52 ± 1.18 %
same,% Change from starting fat mass,"[4]; Table 10, 30 nmol/kg",−39.52 ± 3.18 %
same,% Change from starting body weight,"[4]; Table 10, 100 nmol/kg",−29.36 ± 2.62 %
same,% Change from starting fat mass,"[4]; Table 10, 100 nmol/kg",−56.66 ± 4.96 %
same,Plasma Cholesterol,"[4]; Table 11, 10 nmol/kg",198.4 ± 6.76 mg/dL
same,Plasma Triglycerides,"[4]; Table 11, 10 nmol/kg",20.78 ± 4.40 mg/dL
same,Blood Glucose,"[4]; Table 11, 10 nmol/kg",105.8 ± 2.10 mg/dL
same,Plasma Cholesterol,"[4]; Table 11, 30 nmol/kg",186.4 ± 17.04 mg/dL
same,Plasma Triglycerides,"[4]; Table 11, 30 nmol/kg",26.12 ± 6.85 mg/dL
same,Blood Glucose,"[4]; Table 11, 30 nmol/kg",100.1 ± 3.29 mg/dL
same,Plasma Cholesterol,"[4]; Table 11, 100 nmol/kg",151.4 ± 14.32 mg/dL
same,Plasma Triglycerides,"[4]; Table 11, 100 nmol/kg",17.26 ± 1.67 mg/dL
same,Blood Glucose,"[4]; Table 11, 100 nmol/kg",103.6 ± 3.20 mg/dL
same,Plasma Cholesterol,"[4]; Table 13, 10 nmol/kg",167.8 ± 15.59 mg/dL
same,Blood Glucose,"[4]; Table 13, 10 nmol/kg",121.4 ± 2.74 mg/dL
same,Plasma Cholesterol,"[4]; Table 13, 30 nmol/kg",159.8 ± 9.99 mg/dL
same,Blood Glucose,"[4]; Table 13, 30 nmol/kg",121.9 ± 6.65 mg/dL
same,Plasma Cholesterol,"[4]; Table 13, 100 nmol/kg",144.2 ± 7.12 mg/dL
same,Blood Glucose,"[4]; Table 13, 100 nmol/kg",116.1 ± 4.67 mg/dL
same,% max increase of insulin AUC,[5],289 +/− 4%
same,"ED50 for insulin, rat IVGTT",[5],2.58 nmol/kg
